Results taken from PubChem BioAssay (NCI).
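Five compound concentrations were applied to cells in 96-well plates for 48 hours; endpoints were derived by simple linear interpolation of the resulting dose-response curve. Here, GI50 denotes the concentration required for 50% inhibition of growth. Definition used: TGI = concentration required for complete inhibition of growth.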

Assays:
Experiment in all cases: inhibition of tumour cell growth, NCI panel, 48 h
[1] = system: OVCAR-5 ovarian
[2] = system: RXF 393 renal
[3] = system: MDA-MB-435
[4] = system: SF-268 CNS
[5] = system: UACC-257 melanoma
[6] = system: 786-0 renal
[7] = system: NCI-H23 lung
[8] = system: SK-MEL-5 melanoma
[9] = system: DMS 114 small cell lung
[10] = system: KM20L2 colon

Structure (SMILES): CCN(CC)S(=O)(=O)c1cccc(-c2ccc3c(NC(=O)C4CC4)n[nH]c3c2)c1
- GI50 [1]: 5.69 µM
- TGI [1]: > 6.25 µM
- GI50 [2]: 1.94 µM
- TGI [2]: 5.17 µM
- GI50 [3]: 0.283 µM
- TGI [3]: > 6.25 µM
- GI50 [4]: 2.34 µM
- TGI [4]: > 6.25 µM
- GI50 [5]: 2.26 µM
- TGI [5]: > 6.25 µM
- GI50 [6]: 2.5 µM
- TGI [6]: > 6.25 µM
- GI50 [7]: 1.86 µM
- TGI [7]: > 6.25 µM
- GI50 [8]: 0.986 µM
- TGI [8]: 3.58 µM

Structure (SMILES): COC(=O)c1ccc(C(=O)OC)c2nc3cc(Cl)ccc3nc12
- TGI [1]: > 100 µM
- TGI [9]: > 100 µM
- TGI [4]: > 100 µM
- TGI [5]: > 100 µM
- TGI [10]: > 100 µM
- TGI [6]: > 100 µM
- TGI [7]: > 100 µM
- TGI [8]: > 100 µM

Structure (SMILES): C(=C\c1ccncc1)/c1ccncc1
- GI50 [1]: > 100 µM
- TGI [1]: > 100 µM
- GI50 [2]: > 100 µM
- TGI [2]: > 100 µM
- GI50 [3]: > 100 µM
- TGI [3]: > 100 µM
- GI50 [4]: > 100 µM
- TGI [4]: > 100 µM
- GI50 [5]: > 100 µM
- TGI [5]: > 100 µM
- GI50 [6]: > 100 µM
- TGI [6]: > 100 µM
- GI50 [7]: > 100 µM
- TGI [7]: > 100 µM
- GI50 [8]: > 100 µM
- TGI [8]: > 100 µM

Structure (SMILES): Cc1ccc(-c2c3c(nn2-c2ccc(S(=O)(=O)NC(=O)NC4CCCCC4)cc2)-c2ccccc2C3)cc1
- GI50 [1]: 29.2 µM
- TGI [1]: 70.3 µM
- GI50 [2]: 23.3 µM
- TGI [2]: 63.1 µM
- GI50 [3]: 19 µM
- TGI [3]: 41.4 µM
- GI50 [4]: 11.5 µM
- TGI [4]: 28.6 µM
- GI50 [5]: 23.7 µM
- TGI [5]: 49.6 µM
- GI50 [6]: 2.29 µM
- TGI [6]: 13.8 µM
- GI50 [7]: 10.9 µM
- TGI [7]: 27.1 µM
- GI50 [8]: 1.33 µM
- TGI [8]: 9.39 µM

Structure (SMILES): Cn1cc(C2=C(c3cc[nH]c3)C(=O)NC2=O)c2ccccc21
- GI50 [1]: > 25 µM
- TGI [1]: > 25 µM
- GI50 [2]: 18.3 µM
- TGI [2]: > 25 µM
- GI50 [3]: 19.7 µM
- TGI [3]: > 25 µM
- GI50 [4]: > 25 µM
- TGI [4]: > 25 µM
- GI50 [5]: > 25 µM
- TGI [5]: > 25 µM
- GI50 [6]: > 25 µM
- TGI [6]: > 25 µM
- GI50 [7]: > 25 µM
- TGI [7]: > 25 µM
- GI50 [8]: > 25 µM
- TGI [8]: > 25 µM

Structure (SMILES): CC(C)(C)C(=O)c1c(C(F)(F)F)n([O-])c2cc(Cl)c(Cl)cc2[n+]1=O
- GI50 [1]: 0.642 µM
- TGI [1]: 2.19 µM
- GI50 [2]: 0.438 µM
- TGI [2]: 0.909 µM
- GI50 [3]: 0.515 µM
- TGI [3]: 1.01 µM
- GI50 [4]: 0.457 µM
- TGI [4]: 0.902 µM
- GI50 [5]: 1.28 µM
- TGI [5]: 2.86 µM
- GI50 [6]: 0.466 µM
- TGI [6]: 0.882 µM
- GI50 [7]: 0.849 µM
- TGI [7]: 2.3 µM
- GI50 [8]: 0.277 µM
- TGI [8]: 1.1 µM

Structure (SMILES): CN(C)CC1C(=O)O[C@H]2[C@H]1CC/C(COC(=O)NCc1ccc(Cn3c(=O)sn(CCCI)c3=O)cc1)=C\CC[C@@]1(C)O[C@@H]21 (some centres undefined)
- GI50 [1]: 1.38 µM
- TGI [1]: 5.04 µM
- GI50 [2]: 0.889 µM
- TGI [2]: 1.71 µM
- GI50 [3]: 1.13 µM
- TGI [3]: 2.73 µM
- GI50 [4]: 4.84 µM
- TGI [4]: 11.4 µM
- GI50 [5]: 4.04 µM
- TGI [5]: 11.7 µM
- GI50 [6]: 1.1 µM
- TGI [6]: 2.43 µM
- GI50 [7]: 4.56 µM
- TGI [7]: 12.9 µM
- GI50 [8]: 6.53 µM
- TGI [8]: 13.3 µM
